How the values were obtained:
[1] = target: T1, 5-hydroxytryptamine receptor 2C (Homo sapiens, UniProt P28335); test: Displacement of [3H]Mesulergine from human 5-HT2C-INI receptor expressed in HEK293 cells by scintillation counting analysis
T1 sequence (P28335 whole entry): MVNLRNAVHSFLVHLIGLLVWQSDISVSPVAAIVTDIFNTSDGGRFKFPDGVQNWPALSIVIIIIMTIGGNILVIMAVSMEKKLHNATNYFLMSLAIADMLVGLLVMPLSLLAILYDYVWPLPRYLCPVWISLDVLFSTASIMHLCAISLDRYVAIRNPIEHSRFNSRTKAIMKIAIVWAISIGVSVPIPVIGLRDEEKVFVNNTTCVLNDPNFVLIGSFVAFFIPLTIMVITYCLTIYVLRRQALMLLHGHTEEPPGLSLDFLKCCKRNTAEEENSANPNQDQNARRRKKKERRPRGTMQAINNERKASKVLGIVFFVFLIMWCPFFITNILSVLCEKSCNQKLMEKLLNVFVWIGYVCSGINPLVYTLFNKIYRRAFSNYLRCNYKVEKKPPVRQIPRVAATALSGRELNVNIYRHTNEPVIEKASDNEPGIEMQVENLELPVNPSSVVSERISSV

[2] = target: 5-hydroxytryptamine receptor 2B (Homo sapiens, UniProt P41595); test: Displacement of [3H]Mesulergine from human 5-HT2B receptor expressed in HEK293 cells by scintillation counting analysis
5-hydroxytryptamine receptor 2B, sequence (P41595 whole entry): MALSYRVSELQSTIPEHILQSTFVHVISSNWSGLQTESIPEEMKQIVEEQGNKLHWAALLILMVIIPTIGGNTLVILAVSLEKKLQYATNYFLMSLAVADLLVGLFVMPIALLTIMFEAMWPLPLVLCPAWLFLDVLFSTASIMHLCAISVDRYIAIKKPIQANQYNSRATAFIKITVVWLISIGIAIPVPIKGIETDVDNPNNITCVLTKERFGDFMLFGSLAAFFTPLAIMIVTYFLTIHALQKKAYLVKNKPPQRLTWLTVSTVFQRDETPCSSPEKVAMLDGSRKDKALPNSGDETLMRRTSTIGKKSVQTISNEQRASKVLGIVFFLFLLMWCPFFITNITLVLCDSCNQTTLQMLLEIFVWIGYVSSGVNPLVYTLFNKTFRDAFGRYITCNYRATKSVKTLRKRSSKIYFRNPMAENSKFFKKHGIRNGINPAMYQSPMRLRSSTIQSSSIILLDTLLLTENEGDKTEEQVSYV

Ki [1]: 1000 nM
Ki [2]: 4100 nM
SMILES: CN(C)[C@H]1Cc2ccccc2[C@H](c2ccc([N+](=O)[O-])cc2)C1
